Laboratory results published in paper PMC12298270, “Development and Validation of a New LC-MS/MS Method for Simultaneous Quantification of Ivacaftor, Tezacaftor and Elexacaftor Plasma Levels in Pediatric Cystic Fibrosis Patients” (Pharmaceuticals, 2025).
Where two headings read alike, the source gives them in different places.

Columns and labels:
[1] = Long-term −80 °C stability of authentic patient plasma samples; assay type: physicochemical, human; conditions: for Stability, % of the first measurement: n = 3 T0 and T4 patients' samples, −80 °C, five months; for Stability (%) mean ± SD, T0 samples / Stability (%) mean ± SD, T4 samples: patient plasma n = 3, stored at −80 °C, 5 months vs Time 0
Experimental: (§1) We have also evaluated the stability of prepared low-, medium- and high-QC samples following one cycle of freezing (−80 °C) and thawing (after 12 days). The calculated stability for ivacaftor, tezacaftor and elexacaftor was 100–107% after 12 days. Patient samples (n = 3 T0 and T4) were randomly selected and re-analyzed after being stored at −80 °C over a period of five months. Compared to the first measurement (time 0), the stability ranged from 85.48 ± 19.83% (mean ± SD) for IVA T4 to 90.55 ± 2.42% for ELX T0 (Supplementary Table S2). Autosampler stability was tested by analyzing IVA, TEZ and ELX concentrations in QCs maintained at room temperature at time 0 (corresponding to preparation of QC samples and to the first measurement) and after 24 h (short-term stability) or 9 days (long-term stability). We also evaluated, on prepared low-, medium- and high-QC samples, the stability following one cycle of freezing (−80 °C) and thawing (after 12 days). To further assess long-term stability, n = 3 T0 and T4 of authentic samples, stored at −80 °C over a period of five months, were randomly chosen and re-analyzed. The percentage difference between the concentration measured at each sampling point and the initial concentration was calculated. Based on ICH guideline M10, a percentage difference below the 15% was considered acceptable.

[2] = set-up: method as in PMID 38494378; conditions: cited from earlier work
[3] = set-up: method as in ref 18 = [18]; 18. U.S. Food and Drug Administration Center for Drug Evaluation and Research: Nda/Bla, Multi-Disciplinary Review and Evaluation, Lumacaftor/Ivacaftor Available online: https://www.accessdata.fda.gov/; conditions: Trikafta drug registration documents; cited from earlier work
[4] = Short- and long-term autosampler stability of prepared QC samples at room temperature; assay type: physicochemical; conditions: for Stability (%): autosampler; for 9-day autosampler stability: across L-, M- and H-QC levels
Experimental: Both short- and long-term stability were evaluated on prepared QC samples kept at room temperature for a maximum of 9 days. After 24 h from QC sample preparation and first assessment (Time 0), the stability was around 100% for all QC samples. […] Autosampler stability was tested by analyzing IVA, TEZ and ELX concentrations in QCs maintained at room temperature at time 0 (corresponding to preparation of QC samples and to the first measurement) and after 24 h (short-term stability) or 9 days (long-term stability). We also evaluated, on prepared low-, medium- and high-QC samples, the stability following one cycle of freezing (−80 °C) and thawing (after 12 days). To further assess long-term stability, n = 3 T0 and T4 of authentic samples, stored at −80 °C over a period of five months, were randomly chosen and re-analyzed. The percentage difference between the concentration measured at each sampling point and the initial concentration was calculated. Based on ICH guideline M10, a percentage difference below the 15% was considered acceptable.

[5] = Plasma levels of IVA, TEZ and ELX by LC-MS/MS in pediatric cystic fibrosis patients at steady state on Kaftrio; assay type: in vivo, human; conditions: for Cmax at 4 h / AUC(0-t): both sexes, human, plasma, oral; for Cmax at 4 h / Plasma concentration T0 (Ctrough), 25th Percentile / Plasma concentration T0 (Ctrough), 75th Percentile / Plasma concentration T0 (Ctrough), Median: steady state; for Cmax at 4 h: 4 h after morning Kaftrio dose; for Plasma concentration T0 (Ctrough), 25th Percentile / Plasma concentration T0 (Ctrough), 75th Percentile / Plasma concentration T0 (Ctrough), Median: before morning Kaftrio dose
Experimental: The clinical performance of our validated method was tested on n = 25 samples from pediatric patients affected by cystic fibrosis. Table 5 reports plasma concentrations of IVA, TEZ and ELX measured before (T0) and 4 h after (T4) the morning dose assumption of Kaftrio® (corresponding to IVA Tmax). For IVA, the plasma concentration at 12 h (T12) was obtained by using C4h*e^−β(t12−t4), and the AUC0–12h was calculated to assess the systemic exposure within the interval between two doses (Table 5). Thereafter, AUC0–12h values were multiplied by 2 in order to perform a regression analysis of T0 concentrations versus AUC0–24h.
The clinical applicability of our validated method was tested on n = 25 plasma samples from pediatric patients with a median (range) age of 9.5 (7–17) years and affected by cystic fibrosis (CF). These patients (n = 14 males and n = 11 females) were followed-up during the routine clinical practice at Pneumology and Cystic Fibrosis Unit of Bambino Gesù Children’s Hospital, and were concomitantly receiving therapies with pancreatic enzymes, bronchodilators, antibiotics (including carbapenems, macrolides, beta-lactams, lipopeptides, fluoroquinolones) and proton pump inhibitors.
In order to evaluate systemic exposure to each CFTR modulator, drug levels were measured at steady-state by collecting EDTA–whole blood samples before (T0, corresponding to the minimum plasma concentration, Ctrough,) and 4 h after the morning dose intake (T4, corresponding to the maximum concentration, Cmax). After centrifugation at 3500 rcf for 5 min, plasma was recovered from whole blood samples. Plasma samples were collected and stored at −80 °C until analysis.
According to the Kaftrio® summary of product characteristics (SmPC), patients received a morning dose consisting of two ivacaftor 75 mg/tezacaftor, 50 mg/elexacaftor, 100 mg tablets, whereas one ivacaftor 150 mg tablet was taken in the evening (every 12 h).
Elexacaftor/tezacaftor/ivacaftor plasma levels were determined using high-performance liquid chromatography (HPLC) coupled to mass spectrometry (MS/MS). EDTA–whole blood samples were collected before (T0) and 4 h after (T4) morning drug intake. Analysis of Kaftrio® plasma levels was performed at Division of Metabolic Diseases and Drug Biology of Bambino Gesù Children’s Hospital, IRCCS, in Rome (Italy). The liquid chromatography (LC) system consisted of an UHPLC Agilent 1290 Infinity II (Agilent Technologies, Deutschland GmbH, Waldbronn, Germany). Gradient chromatographic separation was performed in reverse phase mode with a Luna Omega 1.60 µm Polar C18 (100 × 2.1 mm) column (Phenomenex) maintained at 40 °C, with mobile phase A (0.1% formic acid (FA) in water) and mobile phase B (0.1% formic acid and 25% of 2-propanol in ACN). The flow rate of mobile phases was 0.4 mL/min. The duration of each chromatographic run was 10.50 min.
The volume injected was 1 μL. Detection of IVA, IVA-d9, TEZ, TEZ-d4, ELX and ELX-d3 was carried out using a 6470 Mass Spectrometry system (Agilent Technologies, Deutschland GmbH, Waldbronn, Germany) equipped with an ESI-JET-STREAM source operating in the positive ion (ESI+) mode. Mass spectrometric conditions were as follows: Gas Temperature 350 °C, Gas Flow 9 L/min, Sheath Gas Temperature 300 °C, Sheath Gas Flow 9 L/min, Capillary 4000 V, Nebulizer 35 psi.
A 10 µL measure of IS working solution with IVA-d9, TEZ-d4 and ELX-d3 was added to 50 µL of plasma or CAL or QC or blank sample in darkened tubes. After vortexing for 5 s, 300 µL of pure ACN were added to each sample. Samples were mixed for 60 s and centrifuged at 13,000 rpm for 9 min at room temperature. Thereafter, 200 µL of supernatant were collected in amber glass vials and injected into the UHPLC-MS/MS system.
Demographic data and PK parameters were analyzed using descriptive statistics. The median with interquartile range (IQR) was used to describe Ctrough levels. […]

[6] = Stability of prepared QC samples after one cycle of freezing (−80 °C) and thawing; assay type: physicochemical; conditions: low-, medium- and high-QC samples, thawed after 12 days
Experimental: as §1

[7] = set-up: method as in PMID 36015300; conditions: cited from earlier work
[8] = set-up: method as in PMID 40245791; conditions: H-QC, after sample preparation; cited from earlier work
[9] = set-up: method as in ref 22 = [22]; 22. Kaftrio®, Summary of Product Characteristics (SmPC), European Medicine Agency (EMA) Available online: https://www.ema.europa.eu/en/medicines/human/EPAR/kaftrio (accessed on 3 March 2024); conditions: cited from earlier work
[10] = set-up: method as in PMID 36831163; conditions: cited from earlier work
CFTR = tested on: CFTR; set-up: method as in PMID 36015300; conditions: cited from earlier work
[11] = H-QC (18 µg/mL), 24 H vs Time 0
[12] = H-QC (18 µg/mL), Day 9 vs Time 0
[13] = L-QC (0.3 µg/mL), 24 H vs Time 0
[14] = L-QC (0.3 µg/mL), Day 9 vs Time 0
[15] = M-QC (8 µg/mL), Day 9 vs Time 0
[16] = n = 25 pediatric CF patients, read-out: Plasma concentration T4 (Cmax), 25th Percentile
[17] = n = 25 pediatric CF patients, read-out: Plasma concentration T4 (Cmax), 75th Percentile
[18] = n = 25 pediatric CF patients, read-out: Plasma concentration T4 (Cmax), Median
[19] = Kaftrio drug registration documents

Row | Stability, % of the first measurement [1] | Stability (%) mean ± SD, T0 samples [1] [%] | Stability (%) mean ± SD, T4 samples [1] [%] | Stability (%) [4, 11] [%] | Stability (%) [4, 12] [%] | Stability (%) [4, 13] [%] | Stability (%) [4, 14] [%] | Stability (%) ([4]; M-QC (8 µg/mL), 24 H vs Time 0) | Stability (%) [4, 15] [%] | Cmax at 4 h [5, 16] [ng/mL] | Cmax at 4 h [5, 17] [ng/mL] | Cmax at 4 h [5, 18] [ng/mL] | Plasma concentration T0 (Ctrough), 25th Percentile ([5]; n = 25 pediatric CF patients) [ng/mL] | Plasma concentration T0 (Ctrough), 75th Percentile ([5]; n = 25 pediatric CF patients) [ng/mL] | Plasma concentration T0 (Ctrough), Median ([5]; n = 25 pediatric CF patients) [ng/mL] | Stability after one cycle of freezing and thawing [6] | Compound | Minimum concentration (Cmin), median (range) [2] [ng/mL] | Ctrough (Cmin), mean ± SD [3] [ng/mL] | Tmax [7] [h] | Remaining % after ten days in the autosampler [8] [%] | further results
1 | higher than 85% | 90.55 ± 2.42 | 89.18 ± 18.05 | 98.74 | 114.46 | 101.72 | 113.79 | 99.76 | 113.09 | 13300 | 24100 | 17800 | 5820 | 12940 | 8730 | 100–107% | Cc1nn(C)cc1S(=O)(=O)NC(=O)c1ccc(-n2ccc(OCC(C)(C)C(F)(F)F)n2)nc1N1C[C@@H](C)CC1(C)C [ELX, Elexacaftor] | 2800 | 4050 ± 2070 | 6 | 99.8 | 
2 | higher than 85% | 86.96 ± 3.98 | 85.48 ± 19.83 | 101.29 | 73.54 | 101.51 | 75.75 | 99.88 | 78.27 | 1070 | 2430 | 1490 | 370 | 1340 | 790 | 100–107% | CC(C)(C)c1cc(C(C)(C)C)c(NC(=O)c2c[nH]c3ccccc3c2=O)cc1O [IVA, Ivacaftor] |  | 630 ± 260 |  | 88 | AUC0–12h, mean ± SD [9, 19]: 11700 ± 4010 ng·h/mL; Cmax, mean ± SD [9, 19]: 1240 ± 340 ng/mL; Back-calculated Ctrough, mean ± 1.96 SD [2]: 700 ng/mL; 9-day autosampler stability ([4]; 9 days from day 0): 76%; 9-day autosampler stability ([4]; 9 days from day 0, listed as ivacaftor): 73.54–78.27%; AUC(0-t) ([5]; n = 25 pediatric CF patients, C12h estimated as C4h*e^−β(t12−t4), read-out: Measured AUC0–12h, 25th Percentile): 7930 ng·h/mL; AUC(0-t) ([5]; n = 25 pediatric CF patients, C12h estimated as C4h*e^−β(t12−t4), read-out: Measured AUC0–12h, 75th Percentile): 19400 ng·h/mL; AUC(0-t) ([5]; n = 25 pediatric CF patients, C12h estimated as C4h*e^−β(t12−t4), read-out: Measured AUC0–12h, Median): 11400 ng·h/mL; Back-calculated Ctrough (T0), median (IQR) ([5]; from regression equation of AUC0–24h versus Ctrough (y = 27.6 * x + 4.30)): 0.80 (0.42–1.32) µg/mL; Measured AUC0–12h, 25th Percentile ([5]; n = 25 pediatric CF patients, C12h estimated as C4h*e^−β(t12−t4)): 5330 ng·h/mL; Ctrough, mean ± SD ([10]; adult patients): 900 ± 370 ng/mL; Ctrough, mean ± SD ([10]; children): 710 ± 200 ng/mL
3 |  |  |  |  |  |  |  |  |  |  |  |  |  |  |  |  | CC(C)(C)c1cc(C(C)(C)CO)c(O)cc1NC(=O)c1c[nH]c2ccccc2c1=O [M1-IVA, hydroxymethyl ivacaftor] |  |  |  |  | Potency of metabolite relative to parent compound (CFTR): 1/6
4 | higher than 85% | 89.35 ± 4.87 | 85.51 ± 11.87 | 101.39 | 105.83 | 96.55 | 103.79 | 100.12 | 105.32 | 3750 | 6320 | 4520 | 720 | 1870 | 1370 | 100–107% | CC(C)(CO)c1cc2cc(NC(=O)C3(c4ccc5c(c4)OC(F)(F)O5)CC3)c(F)cc2n1C[C@@H](O)CO [TEZ, Tezacaftor] | 1300 | 2100 ± 820 | 3 | 99.8 | Effect of simultaneous ingestion of fatty food on exposure ([9]; Kaftrio SmPC): not affected
